# Where two headings read alike, the source gives them in different places. *1 amine or outer side, *2 acyl side, *3 side chain or, on linkers, in order; H or OH if unused. Where a SMILES comes first, the peptide text is derived from it. Side-chain parts run from the residue outwards. [ ]: non-standard residue; d: D form. The star is where a group is joined. γGlu = O=C(O)[C@H](CCC(=O)[*:2])N[*:1]; αMeF = C[C@](N)(Cc1ccccc1)C(=O)O; αMeK = C[C@](N)(CCCCN)C(=O)O; Lauroyl = CCCCCCCCCCCC(=O)*; αMeS = C[C@](N)(CO)C(=O)O; AEEA = NCCOCCOCC(=O)O; Aib = CC(C)(N)C(=O)O
# How the values were obtained:
# [1] = molecular target: T1, human GLP-1R (Homo sapiens, UniProt P43220); experiment: cAMP accumulation assay in CHO cells stably expressing human GLP-1R; type: cell-based; details: geometric mean (SEM); for EC50: 30 min at room temperature, HTRF cAMP, n ≥ 3 independent experiments
# T1 construct: expressed in transfected cells
# T1 sequence (P43220 24-463): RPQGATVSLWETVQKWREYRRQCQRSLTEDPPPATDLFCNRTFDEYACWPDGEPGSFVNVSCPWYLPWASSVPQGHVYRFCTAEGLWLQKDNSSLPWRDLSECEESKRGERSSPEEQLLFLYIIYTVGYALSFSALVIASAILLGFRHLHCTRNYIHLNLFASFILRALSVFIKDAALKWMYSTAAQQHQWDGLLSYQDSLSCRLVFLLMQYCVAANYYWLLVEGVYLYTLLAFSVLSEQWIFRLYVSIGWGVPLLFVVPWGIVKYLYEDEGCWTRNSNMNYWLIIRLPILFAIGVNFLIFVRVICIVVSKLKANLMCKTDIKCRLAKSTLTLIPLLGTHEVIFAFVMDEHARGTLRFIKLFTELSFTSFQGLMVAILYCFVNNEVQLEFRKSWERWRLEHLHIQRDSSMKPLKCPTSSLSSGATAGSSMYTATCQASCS
# Protocol: All reagents for cAMP assays were obtained from Sigma-Aldrich unless otherwise specified.
# Cells were suspended in assay buffer and combined with serially diluted peptides at room temperature for 30 min. cAMP levels were measured using a cAMP dynamic 2 HTRF kit (Cisbio, Codolet, France), following the manufacturer’s two-step protocol, on an EnVision plate reader (PerkinElmer, Waltham, MA, USA). […] The transformed data were analyzed by four-parameter logistic fit to determine EC50 values using GraphPad Prism 6 (GraphPad Software, San Diego, CA, USA).
# [2] = Fasted-state simulated intestinal fluid/pancreatin assay; type: in vitro ADME; details: FaSSIF with USP pancreatin; 2 h incubation in FaSSIF/USP pancreatin, pre-warmed, agitation; analytical RP-HPLC area under the curve; read-out: peptide remaining intact after incubation in FaSSIF/pancreatin
# Protocol: Fresh FaSSIF and USP Pancreatin (FaSSIF/p; Sigma-Aldrich) was prepared according to Galia et al[55]. and used immediately. Peptides were dissolved in pre-warmed FaSSIF before addition of pre-warmed FaSSIF/pancreatin with agitation. Samples were analyzed by analytical RP-HPLC to determine remaining intact peptide by area under the curve.
# [3] = EScalate equilibrium shift assay, rat plasma; type: in vitro ADME; details: rat; EScalate equilibrium shift, five dilutions of plasma in PBS, 1 h at room temperature, HPLC-QTOF MS; read-out: Fraction unbound peptide (%), rat
# [4] = system: rat plasma protein; experiment: EScalate equilibrium shift assay, rat plasma; type: in vitro ADME; details: EScalate equilibrium shift assay
# [5] = EScalate equilibrium shift assay, dog plasma; type: in vitro ADME; details: dog; EScalate equilibrium shift, five dilutions of plasma in PBS, 1 h at room temperature, HPLC-QTOF MS; read-out: Fraction unbound peptide (%), dog
# [6] = system: dog plasma protein; experiment: EScalate equilibrium shift assay, dog plasma; type: in vitro ADME; details: EScalate equilibrium shift assay
# [7] = EScalate equilibrium shift assay, monkey plasma; type: in vitro ADME; details: monkey; EScalate equilibrium shift, five dilutions of plasma in PBS, 1 h at room temperature, HPLC-QTOF MS; read-out: Fraction unbound peptide (%), monkey
# Protocol: [The procedure below names another species; the source lists this species under the same test.] (§1) Binding of peptides to human plasma proteins was determined by the EScalate equilibrium shift assay (Sovicell, Leipzig, Germany), using five dilutions of plasma in phosphate buffered saline and an assumed binding protein concentration of 600 µM. Samples were incubated for 1 h at room temperature then centrifuged to remove the HSA-coated beads. Supernatant samples were analyzed using HPLC (3 µm Phenomenex Aeris Widepore XB-C18 stationary phase) coupled to an electrospray ionization quadrupole time-of-flight mass spectrometer in high resolution accurate mass mode (Agilent, Santa Clara, CA, USA). Unbound fractions were calculated from the concentration-dependent shift in binding equilibrium according to fu=1/1+P/KDPlasma , where P is the concentration of the binding protein in plasma and KDPlasma is the dissociation constant of the compound from plasma proteins in solution.
# [8] = system: monkey plasma protein; experiment: EScalate equilibrium shift assay, monkey plasma; type: in vitro ADME; details: EScalate equilibrium shift assay
# Protocol: [The procedure below names another species; the source lists this species under the same test.] as §1
# [9] = system: diet-induced obese (DIO) mouse model; experiment: Body weight, blood glucose and plasma insulin in diet-induced obese mouse model; type: in vivo; details: DIO mice
# Protocol: Male 20-week-old C57Bl/6 J mice were single-housed for approximately 14 weeks with ad libitum access to water and 60% high-fat diet (D12492, Research Diets). Mice were randomized into groups of 12 mice per group on baseline body weight, 6 h fasting glucose and 6 h fasting insulin. Over 21 days, mice received daily subcutaneous injections of 10 nmol/kg of test peptides or placebo (50 mM Tris–HCl, 150 mM mannitol, 0.02% polysorbate 80; pH 8.0). Body weight was measured daily and fasting glucose and insulin levels were measured on day 14 following a 6-h fast. Blood was collected via tail-snip and glucose was measured with an Ascensia Breeze 2 glucometer (Bayer, Mishawaka, IN, USA). Insulin was measured in plasma using a Meso Scale rat/insulin kit (Meso Scale Discovery, Rockville, MD, USA).
# [10] = system: db/db mice; experiment: Dose-response study in diabetic db/db mouse model; type: in vivo; details: once-daily subcutaneous for 28 days, n = 9 per group
# Protocol: Male 7-week-old db/db mice (Charles River, Bristol, UK) were group-housed with ad libitum access to standard chow and water. Mice were randomized to groups of nine mice per group on baseline body weight, HbA1C and 4-h fasting glucose (assessed in tail bleed samples using a Cobas c-111 analyzer [Roche Diagnostics, Indianapolis, IN, USA] and Nova StatStrip Xpress glucometer [DSI, St. Paul, MN, USA]). Insulin was measured in plasma from tail bleeds using a Meso Scale kit. Over 28 days, mice received daily subcutaneous doses of test peptides or placebo (50 mM Tris–HCl, 150 mM mannitol, 0.02% polysorbate 80; pH 8.0).
# [11] = Bioavailability after intraduodenal administration with permeation enhancers in rats; type: in vivo, rat
# Protocol: Male Sprague Dawley rats (Charles River, Shrewsbury, MA, USA) weighing 250–275 g were housed with ad libitum access to standard chow and water. Test peptides were administered via either an intravenous or a duodenal catheter (4 rats per group) after overnight fasting, and food was returned following 4 h blood collection. Blood was collected via a jugular vein catheter at − 5, 15 and 30 min and 1, 2, 4, 8 and 24 h after intravenous dosing, or for intraduodenal groups at 15 min predose and 0.5, 1, 2, 4, 8, 24 and 48 h postdose. Blood was collected in K2EDTA tubes and kept on wet ice prior to 10 min centrifugation (3000 × g) at 5 °C ± 3 °C. Plasma samples were stored at − 70 °C until analysis.
# Fifty or seventy μL aliquots of K2EDTA plasma samples were precipitated with 75% acetonitrile (Sigma-Aldrich) in water (J.T. Baker, Phillipsburg, NJ, USA) (v/v) and centrifuged at 2000 × g. The supernatant was dried under nitrogen at 60 °C, then cooled. Samples were reconstituted in 20% acetonitrile in water (v/v). […] Gradient separation was performed with water and 0.2% formic acid (Thermo Fisher Scientific, Waltham, MA, USA) as mobile phase A, and acetonitrile with 0.2% formic acid as mobile phase B. The method was qualified for the quantification range of 1–1000 ng/mL with accuracy and precision of ± 20%, except for at the lower limit of quantification when the accuracy and precision were ± 25%. Plasma concentrations were subject to noncompartmental analysis consistent with the route of administration using Phoenix WinNonlin (version 7.0, Certara, Princeton, NJ, USA).
# [12] = 10 nmol/kg daily subcutaneous, day 14, n = 12 per group
smiles,measurement,setting,value
CCCCCCCCCCCC(=O)N[C@@H](CCC(=O)NCCOCCOCC(=O)NCCOCCOCC(=O)NCCCC[C@H](NC(=O)[C@H](C)NC(=O)[C@@H](NC(=O)[C@](C)(Cc1ccccc1)NC(=O)[C@H](CCC(=O)O)NC(=O)[C@](C)(CCCCN)NC(=O)[C@H](C)NC(=O)[C@H](C)NC(=O)[C@H](CCC(=O)O)NC(=O)CNC(=O)[C@H](CCC(=O)O)NC(=O)[C@H](CC(C)C)NC(=O)[C@H](CCCCNC(=O)COCCOCCNC(=O)COCCOCCNC(=O)CC[C@H](NC(=O)CCCCCCCCCCC)C(=O)O)NC(=O)[C@H](CO)NC(=O)[C@](C)(CO)NC(=O)[C@@H](NC(=O)[C@H](CC(=O)O)NC(=O)[C@H](CO)NC(=O)[C@@H](NC(=O)[C@](C)(Cc1ccccc1)NC(=O)[C@H](CO)NC(=O)CNC(=O)[C@H](CCC(=O)O)NC(=O)C(C)(C)NC(=O)[C@@H](N)Cc1c[nH]cn1)[C@@H](C)O)C(C)C)[C@@H](C)CC)C(=O)N[C@H](C(=O)N[C@H](C(=O)N[C@@H](CCC(=O)O)C(=O)NCC(=O)NCC(N)=O)C(C)C)C(C)C)C(=O)O [MEDI7219] (H-H[Aib]EGS[αMeF]TSDV[αMeS]SK([AEEA-AEEA-γGlu-Lauroyl])LEGEAA[αMeK]E[αMeF]IAK([AEEA-AEEA-γGlu-Lauroyl])VVEGG-NH2),CHO-hGLP-1R cAMP 0.1% BSA Effect at max. concentration,"[1]; 0.1% BSA, % activation, 80 nM native GLP-1 defines maximum effect",101.7 (0.5) %
same,EC50,"[1]; 4.4% HSA, read-out: CHO-hGLP-1R cAMP 4.4% HSA EC50",398 pM
same,CHO-hGLP-1R cAMP 4.4% HSA Effect at max. concentration,"[1]; 4.4% HSA, % activation, 80 nM native GLP-1 defines maximum effect",94.3 (1.8) %
same,EC50,"[1]; CHO-hGLP-1R cAMP 0.1% BSA EC50, 0.1% BSA",3.4 pM
same,remaining at 2 h,[2],> 60%
same,fraction unbound at 1 h,[3],0.006
same,"peptide bound to plasma proteins, rat",[4],over 97%
same,fraction unbound at 1 h,[5],0.0176
same,"peptide bound to plasma proteins, dog",[6],over 97%
same,fraction unbound at 1 h,[7],0.025
same,"peptide bound to plasma proteins, monkey",[8],over 97%
same,Body weight change (%),"[9]; 10 nmol/kg daily subcutaneous over 21 days, n = 12 per group, Fig. 3b",−17.0%
same,body weight reduction after 21 days,"[9]; 10 nmol/kg daily subcutaneous, 21 days, n = 12 per group",17.0%
same,6-h fasting blood glucose – day 14,[9]; [12],133.0 mg/dL
same,6-h fasting plasma insulin – day 14,[9]; [12],0.74 ng/mL
same,HbA1C levels,[10]; P < 0.001 versus placebo for doses 1–30 nmol/kg,dose-dependently reduced HbA1C levels
same,blood glucose levels over 28 days,[10]; significantly lower than placebo at 3–30 nmol/kg (P < 0.001),dose-dependently reduced glucose levels
same,fold higher mean bioavailability than semaglutide,[11]; intraduodenal with permeation enhancers,13 fold
same,mean bioavailability (%F),"[11]; single intraduodenal administration with permeation enhancers (NaCDC and PG), n = 4 per group",1.01%
